Results as given in US6737383B1, “Herbicidal oxadiazolidines” (priority 1999, dated 2004).

What was measured:
bedstraw = assay: Test B pre/postemergence bedstraw; assay type: in vivo, Galium aparine
Method in brief: (§1)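 Herbicidal effect was estimated by eye on a ten-point control scale after plants spent twelve to sixteen days in a greenhouse following soil or foliar treatment. Foliar sprays targeted plants at one to four leaves; all doses were formulated in a non-phytotoxic solvent with surfactant.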

blackgrass = assay: Test B pre/postemergence blackgrass; assay type: in vivo, Alopecurus myosuroides
Method in brief: as §1

surinam grass = assay: Test B pre/postemergence surinam grass; assay type: in vivo, Brachiaria decumbens
Method in brief: as §1

cocklebur = assay: Test B pre/postemergence cocklebur; assay type: in vivo, Xanthium strumarium
Method in brief: as §1

corn = assay: Test B pre/postemergence corn; assay type: in vivo, Zea mays
Method in brief: as §1

crabgrass = assay: Test B pre/postemergence crabgrass; assay type: in vivo, Digitaria sanguinalis
Method in brief: as §1

giant foxtail = assay: Test B pre/postemergence giant foxtail; assay type: in vivo, Setaria faberii
Method in brief: as §1

morningglory = assay: Test B pre/postemergence morningglory; assay type: in vivo, Ipomoea hederacea
Method in brief: as §1

pigweed = assay: Test B pre/postemergence pigweed; assay type: in vivo, Amaranthus retroflexus
Method in brief: as §1

rape = assay: Test B pre/postemergence rape; assay type: in vivo, Brassica napus
Method in brief: as §1

soybean = assay: Test B pre/postemergence soybean; assay type: in vivo, Glycine max
Method in brief: as §1

sugar beet = assay: Test B pre/postemergence sugar beet; assay type: in vivo, Beta vulgaris
Method in brief: as §1

velvetleaf = assay: Test B pre/postemergence velvetleaf; assay type: in vivo, Abutilon theophrasti
Method in brief: as §1

wheat = assay: Test B pre/postemergence wheat; assay type: in vivo, Triticum aestivum
Method in brief: as §1

wild oat = assay: Test B pre/postemergence wild oat; assay type: in vivo, Avena fatua
Method in brief: as §1

purple nutsedge = assay: Test B pre/postemergence purple nutsedge; assay type: in vivo, Cyperus rotundus
Method in brief: as §1

[1] = Preemergence, Rate 62 g/ha, scale of 0 to 10 where 0 is no effect and 10 is complete control
[2] = Preemergence, Rate 125 g/ha, scale of 0 to 10 where 0 is no effect and 10 is complete control
[3] = Preemergence, Rate 250 g/ha, scale 0 (no effect) to 10 (complete control)
[4] = Rate 500 g/ha, Preemergence, scale 0 to 10 (0 no effect, 10 complete control)
[5] = Postemergence, Rate 125 g/ha, scale of 0 to 10 where 0 is no effect and 10 is complete control
[6] = Rate 62 g/ha, Preemergence, scale 0 to 10
[7] = Rate 250 g/ha, Postemergence, scale 0 to 10, 0 is no effect, 10 is complete control
[8] = Rate 500 g/ha, Postemergence, scale 0 to 10, 0 is no effect, 10 is complete control
[9] = Postemergence, Rate 62 g/ha, scale 0 to 10, 0 is no effect, 10 is complete control

COC(CCl)n1c(=O)on(C(=O)N(c2ccccc2)C(C)C)c1=O (stereo not shown) [Compound 735]
10: Plant response rating, Blackgrass (blackgrass; [2]) | Blackgrass plant response rating (blackgrass; [3]) | Blackgrass plant response rating (blackgrass; [4]) | B. signalgrass plant response rating (surinam grass; [4]) | Crabgrass plant response rating (crabgrass; [1]) | Plant response rating, Crabgrass (crabgrass; [2]) | Crabgrass plant response rating (crabgrass; [3]) | Crabgrass plant response rating (crabgrass; [4]) | Plant response rating, Giant foxtail (giant foxtail; [2]) | Giant foxtail plant response rating (giant foxtail; [3]) | Giant foxtail plant response rating (giant foxtail; [4]) | Wild oats plant response rating (wild oat; [4])
5: Redroot pigweed plant response rating (pigweed; [1])
7: B. signalgrass plant response rating (surinam grass; [1]) | Plant response rating, Redroot pigweed (pigweed; [2]) | Sugarbeets plant response rating (sugar beet; [4])
3: Velvetleaf plant response rating (velvetleaf; [3]) | Velvetleaf plant response rating (velvetleaf; [4])
2: Morningglory plant response rating (morningglory; [3]) | Morningglory plant response rating (morningglory; [4]) | Plant response rating, Sugarbeets (sugar beet; [2]) | Wheat plant response rating (wheat; [4])
0: Bedstraw plant response rating (bedstraw; [1]) | Plant response rating, Bedstraw (bedstraw; [2]) | Bedstraw plant response rating (bedstraw; [3]) | Bedstraw plant response rating (bedstraw; [4]) | Cocklebur plant response rating (cocklebur; [1]) | Plant response rating, Cocklebur (cocklebur; [2]) | Cocklebur plant response rating (cocklebur; [3]) | Cocklebur plant response rating (cocklebur; [4]) | Corn plant response rating (corn; [1]) | Morningglory plant response rating (morningglory; [1]) | Plant response rating, Morningglory (morningglory; [2]) | Soybean plant response rating (soybean; [1]) | Plant response rating, Soybean (soybean; [2]) | Soybean plant response rating (soybean; [3]) | Soybean plant response rating (soybean; [4]) | Sugarbeets plant response rating (sugar beet; [1]) | Velvetleaf plant response rating (velvetleaf; [1]) | Plant response rating, Velvetleaf (velvetleaf; [2]) | Wheat plant response rating (wheat; [1]) | Plant response rating, Wheat (wheat; [2]) | Nutsedge plant response rating (purple nutsedge; [1]) | Nutsedge plant response rating (purple nutsedge; [3])
1: Rape plant response rating (rape; [1])
6: Plant response rating, Corn (corn; [2]) | Plant response rating, Rape (rape; [2]) | Sugarbeets plant response rating (sugar beet; [3]) | Wild oats plant response rating (wild oat; [1])
8: Blackgrass plant response rating (blackgrass; [1]) | Plant response rating, B. signalgrass (surinam grass; [2]) | Corn plant response rating (corn; [3]) | Redroot pigweed plant response rating (pigweed; [3]) | Rape plant response rating (rape; [3]) | Rape plant response rating (rape; [4]) | Plant response rating, Wild oats (wild oat; [2]) | Wild oats plant response rating (wild oat; [3])
9: B. signalgrass plant response rating (surinam grass; [3]) | Corn plant response rating (corn; [4]) | Giant foxtail plant response rating (giant foxtail; [1]) | Redroot pigweed plant response rating (pigweed; [4])

CC(C)N(C(=O)n1oc(=O)n(CC(F)F)c1=O)c1ccccc1 [Compound 746]
0: Plant response rating, Cocklebur (cocklebur; [9]) | Plant response rating, Cocklebur (cocklebur; [2]) | Cocklebur plant response rating (cocklebur; [3]) | Plant response rating, Corn (corn; [9]) | Corn plant response rating (corn; [5]) | Corn plant response rating (corn; [6]) | Morningglory plant response rating (morningglory; [6]) | Plant response rating, Soybean (soybean; [2]) | Soybean plant response rating (soybean; [6]) | Plant response rating, Sugarbeets (sugar beet; [9]) | Sugarbeets plant response rating (sugar beet; [5]) | Plant response rating, Wheat (wheat; [9]) | Plant response rating, Wild oats (wild oat; [9]) | Plant response rating, Nutsedge (purple nutsedge; [9]) | Nutsedge plant response rating (purple nutsedge; [5]) | Nutsedge plant response rating (purple nutsedge; [6])
10: Blackgrass plant response rating (blackgrass; [3]) | Plant response rating, Crabgrass (crabgrass; [2]) | Crabgrass plant response rating (crabgrass; [3]) | Crabgrass plant response rating (crabgrass; [8]) | Crabgrass plant response rating (crabgrass; [4]) | Plant response rating, Giant foxtail (giant foxtail; [2]) | Giant foxtail plant response rating (giant foxtail; [3]) | Giant foxtail plant response rating (giant foxtail; [6]) | Giant foxtail plant response rating (giant foxtail; [4]) | Morningglory plant response rating (morningglory; [7]) | Morningglory plant response rating (morningglory; [8]) | Plant response rating, Redroot pigweed (pigweed; [2]) | Redroot pigweed plant response rating (pigweed; [3]) | Redroot pigweed plant response rating (pigweed; [6]) | Plant response rating, Wild oats (wild oat; [2]) | Wild oats plant response rating (wild oat; [3])
4: B. signalgrass plant response rating (surinam grass; [5]) | Cocklebur plant response rating (cocklebur; [8]) | Cocklebur plant response rating (cocklebur; [4]) | Corn plant response rating (corn; [7]) | Corn plant response rating (corn; [4]) | Plant response rating, Morningglory (morningglory; [9]) | Plant response rating, Morningglory (morningglory; [2]) | Plant response rating, Rape (rape; [9]) | Rape plant response rating (rape; [5]) | Soybean plant response rating (soybean; [7]) | Sugarbeets plant response rating (sugar beet; [7]) | Sugarbeets plant response rating (sugar beet; [8]) | Velvetleaf plant response rating (velvetleaf; [6]) | Wheat plant response rating (wheat; [5]) | Nutsedge plant response rating (purple nutsedge; [8])
2: Cocklebur plant response rating (cocklebur; [5]) | Cocklebur plant response rating (cocklebur; [7]) | Rape plant response rating (rape; [6]) | Plant response rating, Soybean (soybean; [9]) | Plant response rating, Velvetleaf (velvetleaf; [9]) | Wild oats plant response rating (wild oat; [5]) | Nutsedge plant response rating (purple nutsedge; [7])
7: Bedstraw plant response rating (bedstraw; [5]) | Blackgrass plant response rating (blackgrass; [5]) | B. signalgrass plant response rating (surinam grass; [1]) | Plant response rating, Crabgrass (crabgrass; [9]) | Rape plant response rating (rape; [7]) | Rape plant response rating (rape; [8]) | Plant response rating, Sugarbeets (sugar beet; [2]) | Sugarbeets plant response rating (sugar beet; [3]) | Velvetleaf plant response rating (velvetleaf; [3]) | Velvetleaf plant response rating (velvetleaf; [8]) | Plant response rating, Wheat (wheat; [2]) | Wild oats plant response rating (wild oat; [6]) | Wild oats plant response rating (wild oat; [8])
9: Bedstraw plant response rating (bedstraw; [8]) | Plant response rating, Blackgrass (blackgrass; [2]) | Blackgrass plant response rating (blackgrass; [6]) | Plant response rating, B. signalgrass (surinam grass; [2]) | B. signalgrass plant response rating (surinam grass; [3]) | Crabgrass plant response rating (crabgrass; [5]) | Crabgrass plant response rating (crabgrass; [6]) | Crabgrass plant response rating (crabgrass; [7]) | Giant foxtail plant response rating (giant foxtail; [7]) | Giant foxtail plant response rating (giant foxtail; [8]) | Redroot pigweed plant response rating (pigweed; [8]) | Plant response rating, Rape (rape; [2]) | Rape plant response rating (rape; [3])
5: Plant response rating, Blackgrass (blackgrass; [9]) | Corn plant response rating (corn; [8]) | Redroot pigweed plant response rating (pigweed; [5]) | Soybean plant response rating (soybean; [3]) | Soybean plant response rating (soybean; [4]) | Sugarbeets plant response rating (sugar beet; [6]) | Nutsedge plant response rating (purple nutsedge; [4])
3: Plant response rating, B. signalgrass (surinam grass; [9]) | Plant response rating, Corn (corn; [2]) | Corn plant response rating (corn; [3]) | Soybean plant response rating (soybean; [5]) | Plant response rating, Nutsedge (purple nutsedge; [2])
6: B. signalgrass plant response rating (surinam grass; [7]) | Plant response rating, Giant foxtail (giant foxtail; [9]) | Morningglory plant response rating (morningglory; [3]) | Plant response rating, Redroot pigweed (pigweed; [9]) | Soybean plant response rating (soybean; [8]) | Velvetleaf plant response rating (velvetleaf; [5]) | Plant response rating, Velvetleaf (velvetleaf; [2]) | Velvetleaf plant response rating (velvetleaf; [7]) | Wheat plant response rating (wheat; [6]) | Wheat plant response rating (wheat; [8]) | Wild oats plant response rating (wild oat; [7])
8: Bedstraw plant response rating (bedstraw; [6]) | Bedstraw plant response rating (bedstraw; [7]) | Blackgrass plant response rating (blackgrass; [7]) | Blackgrass plant response rating (blackgrass; [8]) | B. signalgrass plant response rating (surinam grass; [8]) | Giant foxtail plant response rating (giant foxtail; [5]) | Morningglory plant response rating (morningglory; [5]) | Morningglory plant response rating (morningglory; [4]) | Redroot pigweed plant response rating (pigweed; [7]) | Velvetleaf plant response rating (velvetleaf; [4]) | Wheat plant response rating (wheat; [3])
